Measurements as given in patent publication US7943621B2, “Salts of piperazine compounds as D3/D2 antagonists” (Richter Gedeon Nyrt., priority 2008, dated 2011).
Structures can show the parent of a compound that is named as a salt.

How the values were obtained:
[1] = thermal stability by thermogravimetric (TG) and DSC analysis; format: physicochemical; details: solvent-free anhydrous form, 10° C./min, N2
Method: The characterization of trans 4-{2-[4-(2,3-dichlorophenyl)-piperazine-1-yl]-ethyl}-N,N-dimethylcarbamoyl-cyclohexylamine monohydrochloride was carried out by thermogravimetric (TG), differential scanning […] (DSC), infrared spectroscopic (FT-IR), Raman spectroscopic (FT-Raman) and powder X-ray diffraction (PXRD) solid phase analytical methods.

[2] = stability when stored in the solid state (long term and accelerated); format: physicochemical

satisfactory thermal stability up to [1]: about 200 °C | long term stability ([2]; 25±2° C./60±5% RH): 48 months | accelerated stability ([2]; 40±2° C./75±5% RH): 6 months
Structure (SMILES): CN(C)C(=O)NC1CCC(CCN2CCN(c3cccc(Cl)c3Cl)CC2)CC1 (stereo not drawn) [monohydrochloride, Trans 4-{2-[4-(2,3-dichlorophenyl)-piperazine-1-yl]-ethyl}-N,N-dimethylcarbamoyl-cyclohexylamine monohydrochloride]
